Reference: US20250361221A1, “SOLID STATE FORMS OF PALTUSOTINE AND PROCESS FOR PREPARATION THEREOF” (ASSIA CHEMICAL INDUSTRIES LTD., priority 2022, published 2025)

Columns and labels:
Assay type in all cases: physicochemical
[1] = Stability to compression: pressure of 2 tons in a hydraulic press (XRPD); details: 2 tons/1 minute
Protocol: (§1) X-ray diffraction was performed on X-Ray powder diffractometer: Bruker D8 Advance; CuKα radiation (λ=1.5418 Å); Lynx eye detector; laboratory temperature 22-25° C.; PMMA specimen holder ring with silicon low background. Prior to analysis, the samples were gently ground by means of mortar and pestle in order to obtain a fine powder. The ground sample was adjusted into a cavity of the sample holder and the surface of the sample was smoothed by means of a cover glass.
(§2) • Scan range: 2-40 degrees 2-theta; • Scan mode: continuous; • Step size: 0.05 degrees; • Time per step: 0.5 s; • Sample spin: 30 rpm; • Sample holder: PMMA specimen holder ring with silicon low background.
Samples of Paltusotine forms PL1 and PL11 were subjected to a pressure of 2 tons in a hydraulic press (Atlas® Autopress hydraulic press, set to 2 tons). XRPD analysis was performed on the samples after 1 minute.

[2] = Storage stability at different relative humidities and temperatures, 6 months (XRPD); details: for XRPD analysis results: 6 months
Protocol: as §1, §2
Samples of Paltusotine form PL1 was subjected to conditions of different relative humidities at different temperatures. XRPD analysis was performed on the samples after 6 months.

[3] = Grinding experiments: strong grinding and solvent drop grinding (XRPD); details: 2 minutes
Protocol: as §1, §2
Samples of Paltusotine forms PL1 and PL11 were subjected to strong grinding, and to solvent drop grinding in water, ethanol and isopropanol. Grinding was carried out on the samples alone, or in the presence of ethanol or water. In these experiments, about 20 mg of the sample is placed in a mortar and ground with a pestle for 2 minutes. The solvent, when used, as added to the crystalline material before grinding, in a volume of 10 microlitres. XRPD analysis performed on each of the samples after the grinding experiment, confirmed no change in the starting material (Table 3): […]

[4] = Thermal stability: heating up to 100° C. for 30 minutes (XRPD); details: Heating 100° C.
Protocol: as §1, §2
Samples of Paltusotine forms PL1 and PL11 were subjected to heating up to 100° C. for 30 minutes. XRPD analysis of the sample confirmed no change in the starting material (Table 4): […]

Result (XRPD analysis) [1]: Stable
XRPD analysis results ([2]; 25° C., 60% RH): No change
time stable after exposure to high and low relative humidity at different temperatures ([2]; 25° C./60% RH and 40° C./75% RH): at least 6 months
XRPD analysis results ([2]; 40° C., 75% RH): No change
XRPD analysis results ([3]; Solvent-drop grinding (ethanol), 10 microlitres): No change
XRPD analysis results ([3]; Solvent-drop grinding (isopropanol), 10 microlitres): No change
XRPD analysis results ([3]; Solvent-drop grinding (water), 10 microlitres): No change
XRPD analysis results ([3]; Strong grinding, mortar and pestle): No change
Result (XRPD analysis) [4]: Stable
SMILES: N#Cc1cccc(-c2ccc3ncc(-c4cc(F)cc(F)c4)c(N4CCC(N)CC4)c3c2)c1O [Form PL1, Paltusotine]
